Molecular target: PI3K delta (Homo sapiens (Human), UniProt O00329)
Assay: Biochemical assay for PI3Kdelta (Adapta TR-FRET format)
Conditions: enzymatic assay
Source text: For the enzymatic assays, the preparation of PI3K gene constructs, protein expression and purification for HTS are described in WO2012/004299. […] The TR-FRET Adapta™ Universal Kinase Assay Kit was purchased from Invitrogen Corporation (Carlsbad/CA, USA) (Cat. No. PV5099). The kit contains the following reagents: Adapta Eu-anti-ADP Antibody (Europium labeled anti-ADP antibody in HEPES buffered saline, Cat. No. PV5097), Alexa Fluor® 647-labeled ADP tracer (Alexa Fluor® 647-labeled ADP tracer in HEPES buffered saline, Cat. No. PV5098), proprietary TR-FRET dilution buffer pH 7.5 (Cat. No. PV3574). PIK3CD substrate Phosphatidylinositol was obtained from Invitrogen (vesicules consisting of 2 mM PI in 50 mM HEPES pH7.5; Cat. No. PV5371). PIK3CG substrate Phosphatidylinositol-4,5-bisphosphate (PIP(4,5)2 was obtained from Invitrogen (PIP2:PS large unilamellar vesicules consisting of 1 mM PI P2: 19 mM PS in 50 mM HEPES pH7.5, 3 mM MgCl2, 1 mM EGTA; Cat. No. PV5100). Time-Resolved Fluorescence Resonance Energy Transfer (TR-FRET) is a technology based on energy transfer between two adjacent dyes, from an excited electron in one dye (the donor) to an electron of an adjacent dye (the acceptor) through resonance, then released as a photon. This energy transfer is detected by an increase in the fluorescence emission of the acceptor, and a decrease in the fluorescence emission of the donor. TR-FRET assays for protein kinases use a long-lifetime lanthanide Terbium or Europium chelates as the donor species which overcome interference from compound autofluorescence or light scatter from precipitated compounds, by introducing a delay after excitation by a flashlamp excitation source. Results are often expressed as a ratio of the intensities of the acceptor and donor fluorophores. The ratiometric nature of such a value corrects for differences in assay volumes between wells, as well as corrects for quenching effects due to colored compounds. The Adapta™ assay can be divided into two phases: a kinase reaction phase and an ADP detection phase. In the kinase reaction phase, all kinase reaction components are added to the well and the reaction is allowed to incubate for a set period of time specific for each kinase. After the reaction, a detection solution of Eu-labeled anti-ADP antibody, Alexa Fluor® 647-labeled ADP tracer, and EDTA (to stop the kinase reaction) are added to the assay well. ADP formed by the kinase reaction will displace the Alexa Fluor® 647-labeled ADP tracer from the antibody, resulting in a decrease in TR-FRET signal. In the presence of an inhibitor, the amount of ADP formed by the kinase reaction is reduced, and the resulting intact antibody-tracer interaction maintains a high TR-FRET signal. In the Adapta™ assay, the donor (Europium-anti-ADP antibody) is excited at 340 nm and will transfer its energy to the acceptor (Alexa Fluor® 647-labeled ADP tracer). The emission from the Alexa Fluor® 647 can be monitored with a filter centered at 665 nm because it is located between the emission peaks of the donor, which is measured at 615/620 nm. 50 nL of compound dilutions were dispensed onto white 384-well small volume polystyrene plate as described in section 2.2. Then 5 μL of PI3Kgamma and PI3Kdelta and lipid substrate (PI or PIP2:PS) followed by 5 μL of ATP (final assay volume 10 μL) are incubated at RT. […] Reactions were stopped with 5 μL of a mixture of EDTA containing the Eu-labeled anti-ADP antibody and the Alexa Fluor® 647-labeled ADP tracer in TR-FRET dilution buffer (proprietary to IVG). Plates are read 15 to 60 mins later in a Synergy2 reader using an integration time of 0.4 seconds and a delay of 0.05 seconds. […] The control for the 0% inhibition was given by the solvent vehicle of the compounds (90% DMSO in H2O). Data are analyzed using Excel fit software or Graphpad Prism. EC50 values were derived by fitting a sigmoidal dose-response curve to a plot of assay readout over inhibitor concentration. […]

Sequence of PI3K delta (O00329 2-1044): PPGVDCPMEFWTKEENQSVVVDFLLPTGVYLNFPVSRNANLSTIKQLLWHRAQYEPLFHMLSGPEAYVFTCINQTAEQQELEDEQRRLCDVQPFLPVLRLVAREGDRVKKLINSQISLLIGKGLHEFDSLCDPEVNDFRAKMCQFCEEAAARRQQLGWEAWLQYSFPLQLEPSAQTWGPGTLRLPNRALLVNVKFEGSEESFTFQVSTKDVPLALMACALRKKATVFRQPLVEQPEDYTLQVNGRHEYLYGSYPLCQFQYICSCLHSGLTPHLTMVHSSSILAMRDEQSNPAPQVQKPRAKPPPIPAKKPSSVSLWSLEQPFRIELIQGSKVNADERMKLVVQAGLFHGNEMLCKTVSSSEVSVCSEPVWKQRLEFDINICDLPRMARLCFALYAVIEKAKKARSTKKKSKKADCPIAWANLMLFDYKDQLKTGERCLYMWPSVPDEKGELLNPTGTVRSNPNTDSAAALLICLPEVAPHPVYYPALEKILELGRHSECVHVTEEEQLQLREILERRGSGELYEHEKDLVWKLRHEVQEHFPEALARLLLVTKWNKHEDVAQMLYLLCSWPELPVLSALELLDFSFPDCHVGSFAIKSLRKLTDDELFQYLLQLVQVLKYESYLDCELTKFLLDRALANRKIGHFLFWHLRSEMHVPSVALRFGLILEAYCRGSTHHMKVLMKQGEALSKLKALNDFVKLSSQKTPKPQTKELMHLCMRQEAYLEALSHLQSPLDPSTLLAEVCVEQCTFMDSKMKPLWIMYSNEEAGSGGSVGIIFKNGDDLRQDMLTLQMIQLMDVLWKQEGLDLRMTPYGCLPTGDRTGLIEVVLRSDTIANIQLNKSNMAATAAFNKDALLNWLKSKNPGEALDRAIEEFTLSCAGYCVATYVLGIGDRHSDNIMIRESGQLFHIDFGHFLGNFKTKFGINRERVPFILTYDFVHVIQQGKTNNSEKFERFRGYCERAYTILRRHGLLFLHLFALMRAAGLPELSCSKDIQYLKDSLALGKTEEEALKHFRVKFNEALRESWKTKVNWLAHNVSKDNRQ
Sequence of PI3K delta (P27986 461-568 partner): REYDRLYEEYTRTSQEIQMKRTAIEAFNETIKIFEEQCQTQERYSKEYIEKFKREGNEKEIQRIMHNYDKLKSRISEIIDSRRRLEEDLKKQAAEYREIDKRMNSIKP

SMILES | IC50 [nM]
COc1ncc(-c2cccc3nc([C@@H]4C[C@H](O)CN4c4nc(N)nc(C)c4C#N)n(-c4ccccc4)c(=O)c23)cn1 [Example 22, 2-Amino-4-((2S,4S)-4-hydroxy-2-(5-(2-methoxypyrimidin-5-yl)-4-oxo-3-phenyl-3,4-dihydroquinazolin-2-yl)pyrrolidin-1-yl)-6-methylpyrimidine-5-carbonitrile] | 5
Cc1nc(N)nc(N2C[C@@H](O)C[C@H]2c2nc3cccc(-c4cccnc4)c3c(=O)n2-c2ccccc2)c1C#N [Example 24, 2-Amino-4-((2S,4S)-4-hydroxy-2-(4-oxo-3-phenyl-5-(pyridin-3-yl)-3,4-dihydroquinazolin-2-yl)pyrrolidin-1-yl)-6-methylpyrimidine-5-carbonitrile] | 5
COc1cncc(-c2cccc3nc([C@@H]4C[C@H](O)CN4c4nc(N)nc(C)c4C#N)n(-c4ccccc4)c(=O)c23)c1 [Example 25, 2-Amino-4-((2S,4S)-4-hydroxy-2-(5-(5-methoxypyridin-3-yl)-4-oxo-3-phenyl-3,4-dihydroquinazolin-2-yl)pyrrolidin-1-yl)-6-methylpyrimidine-5-carbonitrile] | 5
Cc1nc(N)nc(N2C[C@@H](O)C[C@H]2c2nc3cccc(-c4cncnc4)c3c(=O)n2-c2ccccc2)c1C#N [Example 26, 2-Amino-4-((2S,4S)-4-hydroxy-2-(4-oxo-3-phenyl-5-(pyrimidin-5-yl)-3,4-dihydroquinazolin-2-yl)pyrrolidin-1-yl)-6-methylpyrimidine-5-carbonitrile] | 6
COc1ccc(-c2cccc3nc([C@@H]4C[C@H](O)CN4c4nc(N)nc(C)c4C#N)n(-c4ccccc4)c(=O)c23)cn1 [Example 27, 2-Amino-4-((2S,4S)-4-hydroxy-2-(5-(6-methoxypyridin-3-yl)-4-oxo-3-phenyl-3,4-dihydroquinazolin-2-yl)pyrrolidin-1-yl)-6-methylpyrimidine-5-carbonitrile] | 10
Cc1nc(N)nc(N2C[C@@H](O)C[C@H]2c2nc3cccc(-c4cnn(CCO)c4)c3c(=O)n2-c2ccccc2)c1C#N [Example 28, 2-Amino-4-((2S,4S)-4-hydroxy-2-(5-(1-(2-hydroxyethyl)-1H-pyrazol-4-yl)-4-oxo-3-phenyl-3,4-dihydroquinazolin-2-yl)pyrrolidin-1-yl)-6-methylpyrimidine-5-carbonitrile] | 10
CCOc1ncc(-c2c(F)ccc3nc([C@@H]4C[C@H](O)CN4c4nc(N)nc(C)c4C#N)n(-c4ccccc4)c(=O)c23)cn1 [Example 29, 2-Amino-4-((2S,4S)-2-(5-(2-ethoxypyrimidin-5-yl)-6-fluoro-4-oxo-3-phenyl-3,4-dihydroquinazolin-2-yl)-4-hydroxypyrrolidin-1-yl)-6-methylpyrimidine-5-carbonitrile] | 4
Cc1nc(N)nc(N2C[C@@H](F)C[C@H]2c2nc3cccc(-c4cnn(C)c4)c3c(=O)n2-c2ccccc2)c1C#N [Example 30, 2-Amino-4-((2S,4S)-4-fluoro-2-(5-(1-methyl-1H-pyrazol-4-yl)-4-oxo-3-phenyl-3,4-dihydroquinazolin-2-yl)pyrrolidin-1-yl)-6-methylpyrimidine-5-carbonitrile] | 14
Cc1nc(N)nc(N2C[C@@H](O)C[C@H]2c2nc3ccc(F)c(-c4cn(C)cn4)c3c(=O)n2-c2ccccc2)c1C#N [Example 31, 2-Amino-4-((2S,4S)-2-(6-fluoro-5-(1-methyl-1H-imidazol-4-yl)-4-oxo-3-phenyl-3,4-dihydroquinazolin-2-yl)-4-hydroxypyrrolidin-1-yl)-6-methylpyrimidine-5-carbonitrile] | 13
CCOc1ncc(-c2cccc3nc([C@@H]4CCCN4c4nc(N)nc(C)c4C#N)n(-c4ccccc4)c(=O)c23)cn1 [Example 32, (S)-2-Amino-4-(2-(5-(2-ethoxypyrimidin-5-yl)-4-oxo-3-phenyl-3,4-dihydroquinazolin-2-yl)pyrrolidin-1-yl)-6-methylpyrimidine-5-carbonitrile] | 5
N#Cc1c(N)ncnc1N1CCC[C@H]1c1nc2cccc(C#CCO)c2c(=O)n1-c1ccccc1 [Example 33, (S)-4-Amino-6-(2-(5-(3-hydroxyprop-1-yn-1-yl)-4-oxo-3-phenyl-3,4-dihydroquinazolin-2-yl)pyrrolidin-1-yl)pyrimidine-5-carbonitrile] | 13

Reference: patent publication US9840498B2, “Substituted quinazolin-4-one derivatives” (NOVARTIS AG, priority 2013, dated 2017)
